We go through three compounds from patent US20260242418A1, “CYCLIC PEPTIDES WITH ANTIBACTERIAL ACTIVITY AGAINST MULTIDRUG RESISTANT (MDR) PATHOGENS” (priority 2022, published 2026).

In one series the test system is human cells. The conditions noted are these: cited from earlier work.
For series [1] the following is noted: in vivo, iv; cited from earlier work.
A further series has as its system Pseudomonas aeruginosa. The class given is cell-based. The source says:
(§1) Minimum Inhibitory Concentration (MIC) of a peptide of SEQ D NO: 4 (abbreviated PLP-3) and colistin against a collection of clinically relevant and commercially available bacterial strains was obtained via broth microdilution. The protocol for antimicrobial activity determination, detailed below, consisted in a modification of Clinical & Laboratory Standards Institute (CLSI) Guidelines.
(§2) MIC is the value defined as the lowest concentration of an antimicrobial, in these tests either PLP-3 or colistin, which inhibits the macroscopic growth of a bacterial strain after 18-22 h incubation at 37° C. The results from these assays are obtained via visual identification of the bacterial bottom at the end of the wells of the testing plate. Since the wells contain decreasing concentrations of the compounds, the final result is indicated as a concentration, MIC, expressed in μg/mL of the agent (in this case PLP-3 or colistin).
(§3) Bacterial strains were streaked in Columbia Agar plates (Columbia Agar with 5% Sheep Blood 90 mm Stacker plates, BD) and incubated overnight at 37° C. Polypropylene round bottomed 96-well plates were filled with 50 μL/well of Mueller-Hinton Broth (MHB, CM0405, 500 g, ThermoFisher Scientific™ Oxoid™) and 50 μL of either colistin or PLP-3 (at 4× the chosen initial concentration of the test) were added to the first well of each row of the plate followed by serial dilutions up until the 10th column of the plate.
(§4) Finally, strain inoculums were prepared by diluting 1:100 0.5 McFarland solutions in MHB. Plates were then inoculated with 50 μL of the inoculums and covered with film before 18 to 22 h incubation at 37 C.
(§5) Three biological and three technical replicates were performed per strain.
(§6) Broth microdilution testing of 15 strains of each species provided MIC50 and […] values (Table 4). Strains were either from clinical origin, relevant to current clinical situation, or commercially available strains belonging to the American Type Culture Collection (ATCC), namely: A. baumannii 17978 and 19606, K. pneumoniae 13883 and P. aeruginosa 27853.
(§7) This panel represents an example of relevant MDR, colistin resistant and colistin susceptible strains from which to compare results. The minimum inhibitory concentration (MIC) is the lowest concentration of a chemical, usually a drug, which prevents visible growth of a bacterium or bacteria. MIC50 represents the antimicrobial concentration value that inhibits the growth of 50% of the bacterial strains and […] of each species from the tested panel of strains. Being colistin both a peptide and a last-resource antibiotic, it was included in these assays for comparison against a commercially available antibiotic.
P. aeruginosa ATCC 27853 strain (commercially available from the American Type Collection Culture) was used as control by performing MICs to colistin and PLP-3 in all broth microdilution assays

The next series concerns Acinetobacter baumannii. The class given is cell-based.
Text: as §1, §2, §3, §4, §5, §6, §7

A further series deals with Klebsiella pneumoniae. The class given is cell-based.
Text: as §1, §2, §3, §4, §5, §6, §7

Setting [2] is: panel of 15 P. aeruginosa strains.
Where [3] appears, read: panel of 15 A. baumannii strains.
[4] abbreviates: panel of 15 K. pneumoniae strains.

Where two headings read alike, the source gives them in different places. Positions of bridges follow the written chain, without caps; N, C: chain ends. Non-standard residues stand in square brackets, D forms with d. Residues, ends and D or L forms follow the SMILES beside them. No end group written: not given here. dDab = NCC[C@@H](N)C(=O)O; Orn = NCCC[C@H](N)C(=O)O; Dab = NCC[C@H](N)C(=O)O

On to “RGGRLCYCRRRFCVCVGR (disulfide 8-13, 6-15; listed as Sus scrofa) [PG-1]”, for which the “haemolysis and toxicity against human cells” value with human cells is “significant haemolysis and toxicity”.

For `CC[C@H](C)[C@@H]1NC(=O)[C@H](Cc2c[nH]c3ccccc23)NC(=O)[C@H]([C@@H](C)O)NC(=O)[C@@H]2CCCN2C(=O)[C@H]2CCCN2C(=O)[C@H](CO)NC(=O)[C@H](C)NC(=O)[C@H](CCN)NC(=O)[C@H](CCN)NC(=O)[C@H](Cc2c[nH]c3ccccc23)NC(=O)[C@H](CCN)NC(=O)[C@@H](CCN)NC(=O)[C@H](CCCN)NC(=O)[C@H](CCN)NC1=O` [Murepavadin, cyclo[Ala-Ser-D-Pro-Pro-Thr-Trp-Ile-Dab-Orn-D-Dab-Dab-Trp-Dab-Dab]] (cyclo(TWI[Dab][Orn][dDab][Dab]W[Dab][Dab]AS[dP]P)), the “adverse finding in phase-III clinical trials” value in series [1] is given as “kidney damage in over half of the patients”.

With colistin [reference compound], the MIC50 in the series on Pseudomonas aeruginosa (setting [2]) was 0,5 μg/mL; against Acinetobacter baumannii (setting [3]) it was 0,5 μg/mL; against Klebsiella pneumoniae (setting [4]), 8 mg/L. In addition, the figures for the MIC90 against Pseudomonas aeruginosa (setting [2]), in the series on Acinetobacter baumannii (setting [3]) and in the series on Klebsiella pneumoniae (setting [4]) were 64 mg/L, 64 mg/L and above 64 mg/L, respectively. Further, the minimal inhibitory concentration (MIC) against Pseudomonas aeruginosa (strain 36a) is at most 0.125 mg/L; in the series on Pseudomonas aeruginosa (strain 38a) it was 0.25 mg/L; against Pseudomonas aeruginosa (strain ATCC 27853 (Table 2)), at most 0.125 mg/L; against Pseudomonas aeruginosa (strain ATCC 27853, control in the A. baumannii panel (Table 1)), at most 0.125 mg/L; against Pseudomonas aeruginosa (strain ATCC 27853, control in the K. pneumoniae panel (Table 3)) it was 0.25 mg/L; against Pseudomonas aeruginosa (strain C1) it was 0.5 mg/L. Moreover, the MIC in the series with Pseudomonas aeruginosa (strain C2) was 1 mg/L; against Pseudomonas aeruginosa (strain C3) it was 0.5 mg/L; against Pseudomonas aeruginosa (strain C4), 0.5 mg/L; with Pseudomonas aeruginosa (strain R1), above 64 mg/L; in the series with Pseudomonas aeruginosa (strain R2) it was 64 mg/L; in the series on Pseudomonas aeruginosa (strain R3* (MDR)), 32 mg/L. Also, the MIC with Pseudomonas aeruginosa (strain S1) was at most 0.125 mg/L; against Pseudomonas aeruginosa (strain S2* (MDR)) it was at most 0.125 mg/L; against Pseudomonas aeruginosa (strain S3), 0.5 mg/L; in the series with Pseudomonas aeruginosa (strain S4), at most 0.125 mg/L; against Pseudomonas aeruginosa (strain S5) it was at most 0.125 mg/L; in the series with Acinetobacter baumannii (strain 8* (MDR)), 0.5 mg/L. The MIC with Acinetobacter baumannii (strain 19* (MDR)) amounted to 0.25 mg/L; with Acinetobacter baumannii (strain 80* (MDR)), 0.5 mg/L; in the series with Acinetobacter baumannii (strain 174* (MDR)), 0.25 mg/L; with Acinetobacter baumannii (strain 180* (MDR)) it was 0.5 mg/L; in the series with Acinetobacter baumannii (strain 210* (MDR)), 8 mg/L; with Acinetobacter baumannii (strain 226* (MDR)) it was 0.25 mg/L. The MIC was 0.25 mg/L in the series with Acinetobacter baumannii (strain 253* (MDR)); 0.25 mg/L against Acinetobacter baumannii (strain 317); 0.25 mg/L in the series on Acinetobacter baumannii (strain 383); 0.5 mg/L with Acinetobacter baumannii (strain 19606); 0.25 mg/L in the series on Acinetobacter baumannii (strain ATCC 17978); above 64 mg/L against Acinetobacter baumannii (strain CR17* (MDR)). Besides, the minimal inhibitory concentration (MIC) against Acinetobacter baumannii (strain CR49) was 64 mg/L; against Acinetobacter baumannii (strain CR86), 64 mg/L; in the series with Klebsiella pneumoniae (strain 145* (MDR)), 32 mg/L; against Klebsiella pneumoniae (strain 398* (MDR)), above 64 mg/L; against Klebsiella pneumoniae (strain 545), 0.25 mg/L; in the series on Klebsiella pneumoniae (strain 674* (MDR)), 0.25 mg/L. Moreover, the MIC against Klebsiella pneumoniae (strain 681* (MDR)) was above 64 mg/L; against Klebsiella pneumoniae (strain 716* (MDR)) it was 0.5 mg/L; with Klebsiella pneumoniae (strain 741* (MDR)) it was 0.5 mg/L; with Klebsiella pneumoniae (strain 851* (MDR)), 0.5 mg/L; in the series with Klebsiella pneumoniae (strain 994* (MDR)) it was above 64 mg/L; against Klebsiella pneumoniae (strain 1052* (MDR)), above 64 mg/L. The MIC is 64 mg/L in the series with Klebsiella pneumoniae (strain 1078* (MDR)); 0.5 mg/L against Klebsiella pneumoniae (strain 1129* (MDR)); above 64 mg/L against Klebsiella pneumoniae (strain 1478* (MDR)); 0.25 mg/L in the series on Klebsiella pneumoniae (strain 1480* (MDR)); 1 mg/L against Klebsiella pneumoniae (strain ATCC 13883).

The term MIC50 denotes an inhibitory concentration at the 50% level, which refers to growth in some studies and to a panel of isolates in others. Higher therefore signals lower susceptibility. What is called MIC90 is the lowest concentration that inhibits either 90% of growth or 90% of the strains tested, depending on the study. Read a low MIC90 as greater potency. By MIC is commonly meant the lowest concentration found to suppress growth.
